Calls of active or inactive are those of the source. The rule behind the calls is not given here.

The first data set addresses T1, Lymphocyte antigen 96 (Mus musculus) (UniProt Q9JHF9).
T1 sequence (whole entry): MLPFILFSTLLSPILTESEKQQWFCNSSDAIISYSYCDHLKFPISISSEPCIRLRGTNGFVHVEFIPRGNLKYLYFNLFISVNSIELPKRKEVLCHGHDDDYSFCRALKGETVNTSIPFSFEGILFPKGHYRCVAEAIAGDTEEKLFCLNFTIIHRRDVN
Put plainly: Inhibition of MD2/TLR4 complex formation in C57BL/6 mouse primary peritoneal macrophages assessed as reversal of LPS-induced […] at 10 uM preincubated for 30 mins followed by LPS addition measured after 1 hr by DAPI staining based fluorescence microscopic analysis.
Details: not given
With `COc1cccc(-c2cc(=O)c3ccccc3o2)c1N`, the inhibition entry was “inactive”. Take `COc1nccc(-c2c(-c3ccc(F)cc3)ncn2[C@H]2CC[C@H](O)CC2)n1`: the inhibition result is “inactive”.

Another data set concerns the target T2, Lymphocyte antigen 96 (Homo sapiens) (UniProt Q9Y6Y9).
T2 sequence (whole entry): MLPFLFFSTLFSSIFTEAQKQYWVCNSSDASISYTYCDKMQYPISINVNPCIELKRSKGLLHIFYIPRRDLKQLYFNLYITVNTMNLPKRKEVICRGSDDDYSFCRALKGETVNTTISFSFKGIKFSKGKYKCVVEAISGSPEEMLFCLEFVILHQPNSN
Kind of data set: Binding affinity to recombinant human MD2 (17 to 160 residues) expressed in Escherichia coli BL21(DE3) cells at 6.25 to 100 uM by surface plasmon resonance analysis.
Details: not given
Take `COc1ccc(CNC(=O)/C=C/c2cccc(Cl)c2Cl)cc1OC`: the result was inactive.

Test system in another data set: not listed separately
Kind of data set: Cytotoxicity against C57BL/6 mouse primary peritoneal macrophages assessed as reduction in cell viability at 10 uM after 24 hrs by MTT assay. Format: cell-based. The following applies: peritoneal macrophage cell.
`COc1cc(/C=C/C(=O)NCc2ccc(Cl)cc2)ccc1O`: the Activity result is “Non-toxic”. As for `COc1cc(/C=C/C(=O)NCCCc2ccccc2)ccc1O`, the Activity result is “Non-toxic”.

Take `COc1ccc(CCNC(=O)/C=C/c2cccc(Cl)c2Cl)cc1`: the Activity entry is “Non-toxic”. With `O=C(/C=C/c1cccc(Cl)c1Cl)NCc1ccc(Cl)cc1`, the Activity result is “Non-toxic”.

Consider `COc1cc(/C=C/C(=O)NCc2ccccc2)ccc1O`, for which the Activity result is listed as “Non-toxic”.

`COc1cc(/C=C/C(=O)NCCNC(=O)/C=C/c2ccc(O)c(OC)c2)ccc1O`: the Activity entry was “Non-toxic”. Take `COc1ccc(CCNC(=O)/C=C/c2ccc(O)c(OC)c2)cc1`: the Activity result was “Non-toxic”. On to `COc1ccc(/C=C/C(=O)NCCc2ccccc2)c(OC)c1`, for which the Activity result was “Non-toxic”. The same measure, in the same setting: the same measure for `COc1ccc(CNC(=O)/C=C/c2cccc(Cl)c2Cl)cc1OC`: “Non-toxic”; for `O=C(/C=C/c1cccc(Cl)c1Cl)NCCCCCCNC(=O)/C=C/c1cccc(Cl)c1Cl`: “Non-toxic”. On the same count and under the same terms, the same measure for `COc1ccc(/C=C/C(=O)NCc2ccccc2)c(OC)c1`: “Non-toxic”; for `COc1ccc(/C=C/C(=O)NCCCc2ccccc2)c(OC)c1`: “Non-toxic”; for `CCCCNC(=O)/C=C/c1ccc(OC)cc1OC`: “Non-toxic”. Still for that read-out and setting: the same measure for `COc1cc(/C=C/C(=O)NCCCCCCNC(=O)/C=C/c2ccc(O)c(OC)c2)ccc1O`: “Non-toxic”.

As for `COc1cc(/C=C/C(=O)NCc2ccc(F)cc2)ccc1O`, the Activity entry was “Non-toxic”. Same read-out and setting: the same measure for `COc1ccc(CCNC(=O)/C=C/c2ccc(OC)cc2OC)cc1`: “Non-toxic”; for `CCCCNC(=O)/C=C/c1cccc(Cl)c1Cl`: “Non-toxic”. Take `O=C(/C=C/c1cccc(Cl)c1Cl)NCCNC(=O)/C=C/c1cccc(Cl)c1Cl`: the Activity result is “Non-toxic”. On to `COc1ccc(/C=C/C(=O)N2CCOCC2)c(OC)c1`, for which the Activity result is given as “Non-toxic”.

For the compound `COc1ccc(/C=C/C(=O)NCc2ccc(OC)c(OC)c2)c(OC)c1`, the Activity entry was “Non-toxic”. As for `COc1cc(/C=C/C(=O)NCc2ccc(OC)c(OC)c2)ccc1O`, the Activity entry is recorded as “Non-toxic”. As for `O=C(/C=C/c1cccc(Cl)c1Cl)N1CCOCC1`, the Activity entry is “Non-toxic”. On to `CCCCNC(=O)/C=C/c1ccc(O)c(OC)c1`, for which the Activity entry is listed as “Non-toxic”. Take `COc1ccc(/C=C/C(=O)NCc2ccc(Cl)cc2)c(OC)c1`: the Activity result is listed as “Non-toxic”. For `O=C(/C=C/c1cccc(Cl)c1Cl)NCCc1ccccc1`, the Activity result is reported as “Non-toxic”. `COc1ccc(/C=C/C(=O)NCCCCCCNC(=O)/C=C/c2ccc(OC)cc2OC)c(OC)c1`: the Activity entry is “Non-toxic”. On to `COc1cc(/C=C/C(=O)NCCc2ccccc2)ccc1O`, for which the Activity entry is “Non-toxic”. `O=C(/C=C/c1cccc(Cl)c1Cl)NCc1ccccc1`: the Activity entry was “Non-toxic”.

Regarding `O=C(/C=C/c1cccc(Cl)c1Cl)NCCCc1ccccc1`, the Activity result is “Non-toxic”. On to `COc1ccc(/C=C/C(=O)NCc2ccc(F)cc2)c(OC)c1`, for which the Activity entry was “Non-toxic”. For `O=C(/C=C/c1cccc(Cl)c1Cl)NCc1ccc(F)cc1`, the Activity result is on record as “Non-toxic”. Consider `COc1cc(/C=C/C(=O)N2CCOCC2)ccc1O`, for which the Activity result is on record as “Non-toxic”.

The values are drawn from ChEMBL document CHEMBL3784925, “Discovery of a New Inhibitor of Myeloid Differentiation 2 from Cinnamamide Derivatives with Anti-Inflammatory Activity in Sepsis and Acute Lung Injury” (J Med Chem, 2016).
